Blank lines part the entries; values can stand above or below the compound they belong to.
Columns and labels:
[1] = tested on: anti-fullerene antibodies; experiment: ELISA inhibition of antibody binding to 1-RSA; set-up: species or system mice; settings: for reactivity with polyclonal antibodies raised to C60: method not stated at the place; for inhibition of antibody binding to 1-RSA (ELISA inhibition): serum of mice immunized with 1-TG, plates coated with 1-RSA
Protocol: After a total of three immunizations at 3-week intervals, confirmation of an immune response was determined by direct ELISA in which polystyrene plates (Corning) were coated with the 1-RSA conjugate (0.5 mg/ml in 0.1 M NaHCO3, pH 9), and binding of preimmune and immune sera were determined by standard procedures. Development was with horseradish peroxidase-labeled goat anti-mouse IgG (Sigma), which tested negative for crossreaction with an IgM preparation. The substrate used was o-phenylenediamine.
(§1) Specificity of the response was determined by two procedures: double diffusion in agar (22) and competitive inhibition, as determined by ELISA using RSA and BSA conjugates of the fullerenes, as well as the oligo lysine derivatives. The fullerenes themselves were not soluble enough in aqueous solutions.
The adenosine conjugate had been synthesized using the same strategy used for the fullerenes, i.e., linkage to the epsilon amino groups of the lysines via an N-hydroxysuccinimide ester derivative.
After a total of 3 immunizations at 3 week intervals, confirmation of an immune response was determined by direct ELISA in which polystyrene plates (Corning) were coated with 1-RSA conjugate (0.5 mg/ml in O.1 N NaHCO3, pH 9) and binding of preimmune and immune sera determined by standard procedures. Development was with horseradish peroxide-labeled goat anti-mouse IgG (Sigma, St. Louis, MO) which tested negative for cross reaction with an IgM preparation. The substrate used was o-phenylenediamine.
(§2) Specificity of the response was determined by two procedures: double diffusion in agar and competitive inhibition, as determined by ELISA using RSA and BSA conjugates of the fullerenes, as well as the oligo lysine derivatives. The fullerenes themselves were not soluble enough in aqueous solutions.

[2] = acute and subchronic topical applications; cited from earlier work
[3] = Gamma-camera imaging biodistribution study; format: in vivo, Sprague-Dawley rats
Protocol: The biodistribution in mice of hydroxylated lanthanide-C82 encapsulates is under current investigation. The results presented here are regarded as preliminary as the sample is still small. Studies continue under a NIH Phase I grant. The neutron irradiated samples, along with a […] control sample, were used to perform a γ-camera imaging study on four 300 g Sprague-Dawley rats. Two rats were injected intraperitoneally (IP) with 54 and 18 μCi of ^166Ho activity from samples containing irradiated Ho-metallofullerois. Two control studies were performed by […] of approximately 660 μCi of ^166Ho^3+ in a 1% sodium citrate buffer. The anesthetized rats were scanned side-by-side on a single stage with a γ-camera starting 1 hour after injection and periodically thereafter over the ensuing 48 hours.

[4] = tested on: anti-fullerene antibodies; experiment: Double diffusion in agar; format: binding, mice
Protocol: as §1, §2

Compound: c12c3c4c5c1c1c6c7c2c2c8c3c3c9c4c4c%10c5c5c1c1c6c6c%11c%12c%13c%14c%15c%16c%17c%14c%14c%18c%13c%11c1c1c5c%10c5c(c%14c%10c%17c%11c%13c%16c%14c%16c%15c%12c%12c%16c(c2c7c%126)c2c8c3c(c%13c%142)c2c9c4c5c%10c%112)c%181 [Compound C70]
reactivity with polyclonal antibodies raised to C60 [1]: non-reactive | reactivity with polyclonal antibodies raised to C60 ([1]; listed as C70 fullerene): crossreacted | carcinogenic effects [2]: lack of carcinogenic effects

inhibition of antibody binding to 1-RSA (ELISA inhibition) [1]: No inhibition
Compound: RSA: rabbit serum albumin, control

Compound: [166Ho+3] [^166Ho^3−]
urinary clearance ([3]; IP, commencing as soon as 1 hour post-injection): rapid | ^166Ho activity excreted ([3]; after 24 hours): essentially all

inhibition of antibody binding to 1-RSA (ELISA inhibition) [1]: No inhibition
Compound: TG: unsubstituted bovine thyroglobulin, carrier protein
precipitation in double diffusion in agar ([4]; TG solution diluted 5-fold): a line of precipitation was seen | precipitation in double diffusion in agar ([4]; serum of mice immunized with 1-TG): no visible precipitate

Source: patent publication US20050069947A1, “Antibodies specific for nanotubes and related methods and compositions” (priority 2001, published 2005)
